Results as given in paper PMC12024814, “Ruthenium(II)–Arene Complexes with a 2,2′-Bipyridine Ligand as Anti-Aβ Agents” (Biomolecules, 2025).

What was measured:
[1] = target: T1, Aβ40 (Homo sapiens, UniProt P05067); experiment: Dynamic light scattering (DLS) of ThT assay samples; format: biochemical; details: for DLS prominent peak particle size / DLS minor feature share of the total spectrum / DLS minor feature particle size: Aβ40 co-incubated with complex 6 h; for DLS prominent peak particle size: PBS pH 7.4, 37 °C, Aβ40 alone around 340 nm; for DLS minor feature share of the total spectrum: Aβ40 alone 13 percent; for DLS minor feature particle size: Aβ40 alone 78 nm; for Ranking DLS: scale 1 to 5 (1 = best, 5 = worst)
T1 construct: Lyophilized Aβ40 was monomerized following previous procedures; purchased GenScript
T1 sequence (P05067 672-711 limits assumed): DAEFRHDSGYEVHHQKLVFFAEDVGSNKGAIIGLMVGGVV
Description: Samples were extracted from the ThT assay plate for DLS analysis. A 125 μL sample was placed into a 1 mL syringe and injected through a syringe filter (pore size: 0.2 μm), into a 0.5 mL microcentrifuge tube. The filtrate was added to a microvolume polystyrene cuvette and placed into a Malvern Zetasizer Nano ZSP to measure the DLS spectra. Measurements are represented as an average of percent intensity through several runs determined by Zetasizer software Version 7.13.1.
Samples for DLS analysis were taken directly from the ThT assay following its completion. This allowed for a comparison between both data sets, to determine if a correlation for activity between the complexes could be established. For the Aβ40 peptide alone, a prominent peak around 340 nm was observed, while following treatment with the respective Ru complexes, a discernable shift to smaller particle sizes was unanimously observed (Figure 6).

[2] = target: T1, Aβ40; experiment: TEM imaging of DLS filtrates; format: biochemical; details: for Ranking TEM: scale 1 to 5 (1 = best, 5 = worst), qualitative
Description: Samples for TEM were prepared using the DLS filtrates following their analysis. An aliquot (20 µL) was added directly to a copper-coated formvar/carbon 300 mesh grid with a 63 µm pore size (Ted Pella). After settling for 1 min, the solvent was wicked away, then the grid was stained using 2% uranyl acetate (20 µL). After standing for one minute, the solvent was wicked away, and the grid was washed using dH2O (20 µL), which stayed on the grid for one minute before being wicked away. The grids were stored at room temperature until analysis. TEM images were collected using a high-resolution JEOL JEM 2100F operating at 200 kV.
The final evaluative step in the Aβ40 aggregation assay was imaging the samples using transmission electron microscopy (TEM). The samples used in the preparation of the TEM grids were those of the DLS filtrates, thereby allowing for a direct comparison between experimental methods, ultimately resulting in the same sample being measured by three different instruments. […] In order to determine the impact of each complex on Aβ40, multiple images were taken from each prepared grid (Figure S21), thereby providing an accurate representation of the particles.

[3] = tested on: C6 glioma cells; experiment: MTT cell viability assay, C6 glioma cells; format: cell-based, Rattus norvegicus; details: for Ranking Cytotoxicity: scale 1 to 5 (1 = best, 5 = worst), C6 glioma cells; for cell morphology versus DMSO-treated control (confocal microscopy): 20 µM
Description: Cultures of adherent Rattus norvegicus pheochromocytoma cells (PC-12; ATCC CRL-1721) and axenic Rattus norvegicus C6 glioma cells (ATTC CCL-107) were prepared as previously reported. The cells were cultured using Dulbecco’s Modified Eagle’s medium with low glucose, sodium pyruvate, and without phenol red or L-glutamine (DMEM REF:11054-020; GIBCO; Waltham, MA, USA) and supplemented with 1.5% (v/v) heat-inactivated fetal bovine serum (GIBCO; Waltham, MA, USA), 10% (v/v) sterile filtered horse serum (Sigma-Aldrich, St. Louis, MO, USA), and 4% sterile L-glutamine (Sigma-Aldrich; St. Louis, MO, USA). Medium supplemented with sera was referred to as “complete medium”, while non-supplemented medium was designated as “incomplete”.
For the viability assays, both cell types were grown to confluency before being trypsinized, resuspended in 1 mL of complete medium per confluent well of a 6-well plate, diluted ten-fold, and then counted with a Scepter 2.0 Handheld Automated Cell Counter (Millipore, Burlington, MA, USA) affixed with a 60 µm sensor. Cells were subsequently seeded (adding 100 µL per well, thus adding an average of 1.0 × 10^4 cells per well) into poly-L-lysine-coated flat-bottomed 96-wells using separate plates for each cell type. Stock solutions of the Ru complexes were prepared in DMSO, with an appropriate dilution using DMSO to the testing concentrations of 40, 20, 2, or 0.2 µM. In all cases, the final concentration of DMSO was 1% with cell incubations. Solutions of the Ru complexes or DMSO were introduced 24 h after cell plating and incubated a further 24 h unless otherwise indicated. Replicate wells (n = 4) were set up for each experimental variation. No cell controls were also set up, containing the Ru complex in DMSO additions, so that potential spectral signals could be blanked out for the spectrophotometric 3-[4,5-dimethylthiazol-2-yl]-2,5-diphenyltetrazoliumbromide (MTT) viability assay, as described below.
To assess the viability of the cells with and without Ru additions, cell viability tests were performed using an MTT assay following the procedure of Mosmann with the following variations: Before adding the MTT reagent (5 mg/mL water), 90 µL of the complete medium was removed from each well, and 90 µL of incomplete medium was added. Then, 10 µL of MTT reagent was added per well, gently mixed, and incubated at ambient temperature for one hour. The reactions were stopped by the addition of 100 µL per well of the stopping reagent (10% v/v Triton X-100, 1 mM HCl in isopropanol) to lyse the cells and dissolve the formed formazan crystals. The absorbance values were recorded using a Bio-Rad® Microplate Reader Benchmark at 595 nm. All MTT data were normalized to the DMSO controls by calculating the average percent of DMSO control with the following formula: average cell+Ru MTT−average (Ru blank MTT)/average control cell MTT−average (control blank MTT) × 100
Data were obtained from 4 replicates and reported as a percent of control cells.
A final step in the evaluation of the Ru complexes was completed using a standard MTT cell viability assay towards two neuronal cells lines. The cell lines used were glial cells, as these are the most abundant cell type within the brain [61], and chromaffin cells, which would provide an indication regarding stress response. Taken together, these would provide information regarding the overall biocompatibility of the Ru complexes.

[4] = Aqueous stability by 1H NMR (DMSO-D6/D2O, 37 °C); format: physicochemical; details: for incubation time at which new 1H NMR signals (ligand exchange) reached maximum intensity: 25% DMSO-D6 in D2O; for ligand exchange in aqueous media (1H NMR): DMSO-D6/D2O, up to 24 h (RuBtB in 75% DMSO)
Description: A common step in the mechanism of action for most metal-based drugs is ligand exchange around the metal center. This promotes the coordination of the complex to the penultimate biological target, eliciting the desired response. […] Therefore, to evaluate the relative stability of the prepared complexes, ^1H NMR studies were performed. Following complete dissolution of the complexes in deuterated DMSO, dilution using D2O to a final DMSO concentration of 25% provided aqueous samples that were measured following prolonged incubation at 37 °C.
For the majority of the complexes, new signals emerged in close proximity to those of the parent complex, even without any incubation. […] A previously study monitoring ligand exchange for RuB in the presence of several proteins saw that neither the arene ring nor the 2,2-bipyridine ligands were lost, but rather the labile monodentate chloride ligand was replaced.

Cc1ccc(C(C)C)cc1.F[P-](F)(F)(F)(F)F.[Cl-].[Ru+2].c1ccc(-c2ccccn2)nc1 [RuB, [Ru(η^6-p-cymene)(2,2′-bipyridine)Cl]PF6]
DLS prominent peak particle size [1]: 227 nm
DLS minor feature share of the total spectrum [1]: 4%
DLS minor feature particle size [1]: 21 nm
Ranking DLS [1]: 3
Ranking TEM [2]: 2
Ranking Cytotoxicity [3]: 4
incubation time at which new 1H NMR signals (ligand exchange) reached maximum intensity [4]: 1 h

Cc1ccc(C(C)C)cc1.Cc1ccnc(-c2cc(C)ccn2)c1.F[P-](F)(F)(F)(F)F.[Cl-].[Ru+2] [RuBMe, [Ru(η^6-p-cymene)(4,4′-dimethyl-2,2′-bipyridine)Cl]PF6]
DLS prominent peak particle size [1]: 214 nm
DLS minor feature share of the total spectrum [1]: 2%
DLS minor feature particle size [1]: 24 nm
Ranking DLS [1]: 1
Ranking TEM [2]: 3
Ranking Cytotoxicity [3]: 2
incubation time at which new 1H NMR signals (ligand exchange) reached maximum intensity [4]: 1 h

[Ru(η^6-p-cymene)(4,4′-di-tert-butyl-2,2′-bipyridine)Cl]PF6 [RuBtB]
DLS prominent peak particle size [1]: 264 nm
DLS minor feature share of the total spectrum [1]: 4%
DLS minor feature particle size [1]: 53 nm
Ranking DLS [1]: 5
Ranking TEM [2]: 4
cell morphology versus DMSO-treated control (confocal microscopy) ([3]; C6 cells, 24 h): severely reduced in numbers and cell shapes
toxicity (MTT) ([3]; C6 cells, 20 and 40 µM, 24 h): substantial toxicity
Ranking Cytotoxicity [3]: 5
ligand exchange in aqueous media (1H NMR) [4]: no new signals emerged even after 24 h of incubation

[Ru(η^6-p-cymene)(4,4′-diamino-2,2′-bipyridine)Cl]PF6 [RuBA]
DLS prominent peak particle size [1]: 231 nm
DLS minor feature share of the total spectrum [1]: 3%
DLS minor feature particle size [1]: 42 nm
Ranking DLS [1]: 4
appearance of Aβ40 particles in TEM images ([2]; DLS filtrates after 6 h co-incubation): most dispersed and least dense particles
Ranking TEM [2]: 1
cell morphology versus DMSO-treated control (confocal microscopy) ([3]; C6 cells, 24 h): virtually indistinguishable
Ranking Cytotoxicity [3]: 1
ligand exchange in aqueous media (1H NMR) [4]: particularly rapid

[Ru(η^6-p-cymene)(4,4′-dimethoxy-2,2′-bipyridine)Cl]PF6 [RuBMeO]
DLS prominent peak particle size [1]: 239 nm
DLS minor feature share of the total spectrum [1]: 11%
DLS minor feature particle size [1]: 32 nm
Ranking DLS [1]: 2
Ranking TEM [2]: 5
Ranking Cytotoxicity [3]: 3
incubation time at which new 1H NMR signals (ligand exchange) reached maximum intensity [4]: 1 h
